From patent US20220023196A1, “COSMETIC COMPOSITION FOR SKIN IMPROVEMENT COMPRISING GREEN BARLEY EXTRACT” (AMI COSMETIC CO., LTD., priority 2020, published 2022)

How the values were obtained:
filaggrin (FLG) = assay: FLG production in HaCaT cells (Filaggrin-ELISA kit); assay type: cell-based; conditions: for Increase in FLG production (%): 24 hours, Concentration 50 (unit not given), Control = 100
Protocol: (§1) HaCaT cells were dispensed into a 24-well plate at 1.0×10^5 cells/mL and cultured under the conditions of 37° C. and 5% CO2 for 18 hours. After the medium was replaced with serum-free DMEM, the cells were treated with a sample and then cultured for 24 hours. Subsequently, the culture solution was removed, and each group was washed with PBS and then treated with PBS containing no drugs that could interfere with the quantification of proteins. The cells were lysed through repeated switching between low-temperature incubation and room-temperature incubation, and the proteins were collected. The quantification was performed, using a Filaggrin-ELISA kit (Elabscience Biotechnology Co., Ltd.), according to the method specified by the manufacturer.
In order to evaluate the skin barrier strengthening effect of Examples 1 to 6 and Comparative Examples 1 to 5, an experiment was conducted to evaluate the effect of increasing the production of FLG.
The production amount of FLG was measured in the same manner as in Experimental Example 3-1.

hyaluronic acid (HA) = assay: HA production in HaCaT cells (hyaluronic acid ELISA kit); assay type: cell-based; conditions: 24 hours; for Increase in HA production (%): Concentration 50 (unit not given), Control = 100
Protocol: HaCaT cells were dispensed into a 24-well plate at 1.0×10^5 cells/mL and cultured under the conditions of 37° C. and 5% CO2 for 18 hours. After the medium was replaced with serum-free DMEM, the cells were treated with a sample and then cultured for 24 hours. Subsequently, the culture medium was collected and centrifuged at 15,000 rpm for five minutes, and the supernatant was collected and stored frozen (−20° C.) until quantified. Enzyme-linked immunosorbent assay (ELISA) was conducted, using a hyaluronic acid ELISA kit (Elabscience Biotechnology Co., Ltd.), according to the method specified by the manufacturer.
In order to evaluate the moisturizing effect of Examples 1 to 6 and Comparative Examples 1 to 5, an experiment was conducted to evaluate an HA production increasing effect.
The HA production amount was measured in the same manner as in Experimental Example 3-2.

aquaporin 3 (AQP3) = assay: AQP3 production in HaCaT cells (AQP3-ELISA kit); assay type: cell-based; conditions: 24 hours; for Increase in AQP3 production (%): Concentration 50 (unit not given), Control = 100
Protocol: as §1, with “In addition, HaCaT cells” for “HaCaT cells”, “cells/mL and then cultured under” for “cells/mL and cultured under”, “performed, using an AQP3-ELISA kit (Elabscience” for “performed, using a Filaggrin-ELISA kit (Elabscience”
In order to evaluate the moisturizing effect of Examples 1 to 6 and Comparative Examples 1 to 5, an experiment was conducted to evaluate an AQP3 production increasing effect.
The AQP3 production amount was measured in the same manner as in Experimental Example 3-2.

sensitive skin = assay: Human patch test for skin irritation on sensitive skin; assay type: in vivo
Protocol: A test was conducted to evaluate the suitability and safety of use of soothing gel, lotion, cream, body wash, and foam cleanser formulations including a composition including the ceramide and green barley extract of the present invention. The inventors requested the OATC Skin Clinical Trials Center to perform a human application test, and the test was conducted in accordance with the cosmetics guidelines of Korea's Ministry of Food and Drug Safety, Declaration of Helsinki, and OATC Skin Clinical Trials Center's SOP.
In order to classify the test subjects according to skin type, the test subjects were screened by a stinging test to identify those with sensitive skin, wherein steam was applied to their faces for 10 minutes using a steamer to make their skin sensitive, and subsequently, each of 10% lactic acid and distilled water (D.W.) was applied to the nasolabial folds on either side of the nose.
After the test subject's test site was wiped off with 70% ethanol and dried, 25 μl of a test product was applied dropwise to IQ Ultra, which was then attached and fixed to the test site. At 30 minutes, 24 hours, and 48 hours after removing the patch, the level of irritation was evaluated by two experts using, as a standard, the evaluation method devised by Frosch & Kligman and employing the reading standards of the International Contact Dermatitis Research Group (ICDRG).
In addition, safety zones were established, and an experiment was conducted while using the safety zones as criteria for evaluating the likelihood of causing irritation.

Molecule	Increase in FLG production (%) (filaggrin (FLG))	Increase in HA production (%) (hyaluronic acid (HA))	Increase in AQP3 production (%) (aquaporin 3 (AQP3))	also measured
CCCCCCCCCCCCC/C=C/C(O)C(CO)NC(=O)CCCCCCCCCCCCCCCCCCCCCC (stereo not drawn) [Comparative Example 2, Ceramide NS]	116.7%	94.5%	118.5%	–
CCCCCCCCCCCCCCCCCCCCCCC(=O)NC(CO)C(O)C(O)CCCCCCCCCCCCCC (stereo not drawn) [Comparative Example 3, Ceramide NP]	115.5%	93.2%	114.6%	–
O=c1cc(-c2ccc(O)cc2)oc2cc(O[C@@H]3O[C@H](CO)[C@@H](O)[C@H](O)[C@H]3O)c([C@@H]3O[C@H](CO)[C@@H](O)[C@H](O)[C@H]3O)c(O)c12 [saponarin, 5-hydroxy-2-(4-hydroxyphenyl)-6-[3,4,5-trihydroxy-6-(hydroxymethyl)oxan-2-yl]-7-[3,4,5-trihydroxy-6-(hydroxymethyl)oxan-2-yl]oxychromen-4-one]	–	–	–	Increase of the expression level of FLG compared to the control (filaggrin (FLG); 24 hours (FIG. 6)): 29.87%; Production of HA (result in words) (hyaluronic acid (HA)): significantly increased the production of skin moisturizing factors; Production of AQP3 (result in words) (aquaporin 3 (AQP3)): significantly increased the production of skin moisturizing factors
CCCCCCCCCCCCOS(=O)(=O)[O-].[Na+] [1% SLS]	–	–	–	Sum of skin irritation reaction intensity 1st (sensitive skin; 1st reading, patch test): 4.00; Sum of skin irritation reaction intensity 2nd (sensitive skin; 2nd reading, patch test): 4.00; Sum of skin irritation reaction intensity 3rd (sensitive skin; 3rd reading, patch test): 3.06; Irritation of level ++ or more in >10% of test subjects (sensitive skin; conformity criterion): Conforming; Safety zone (sensitive skin; conformity to safety zone of Table 20): Conforming; Skin irritation index (sensitive skin; patch test): 3.06
CCCCCCCCCCCCC/C=C/C(O)C(CO)NC(=O)C(O)CCCCCCCCCCCCCCCCCCCCC (stereo not drawn) [Comparative Example 4, Ceramide AS]	122.4%	94.6%	114.5%	–
CCCCCCCCCCCCCCCCCCCCCC(O)C(=O)NC(CO)C(O)C(O)CCCCCCCCCCCCCC (stereo not drawn) [Comparative Example 5, Ceramide AP]	129.9%	95.2%	113.7%	–
Ceramide EOP [Comparative Example 1]	119.5%	93.0%	117.5%	–
